Laboratory results taken from the pKa sets of Baltruschat and Czodrowski (2020).

details: acidic group

| Compound | pKa |
| --- | --- |
| CCCCSCC(=O)O | 3.81 |
| O=C(NO)c1cccc([N+](=O)[O-])c1 | 8.07 |
| O=[N+]([O-])c1ccc2[nH]cnc2c1 | 10.6 |
| c1ccc(CSc2nc(SCc3ccccc3)c(-c3ccccc3)[nH]2)cc1 | 10.9 |
| CC(=O)C1CCCC1=O (stereo not drawn) | 7.82 |
| Nc1nc(N)nc([S-])n1 | 10.2 |
| Cn1cc(O)[nH+]c1N | 4.9 |
| CC(C)=CC(=O)/C=N/O | 8.9 |
| COc1ccc(C(=O)O)cc1C | 4.35 |
| C[NH+](C)Cc1cc(F)ccc1O | 8.12 |
| N#CC(C#N)=NNc1cccc(Cl)c1Cl | 5.15 |
| Cc1cc(/N=N/c2ccc(S([NH-])(=O)=O)cc2)cc(C(=O)[O-])c1O | 12.1 |
| CCCC(=O)OO | 8.2 |
| NS(=O)(=O)c1ccc(P(=O)(O)O)cc1 | 1.42 |
| O=C(O)c1ccc[se]1 | 3.43 |
| C/C(=N/O)c1cc(C)c(C)cc1O | 8.2 |
| O=S(=O)(Nc1ccc(Cl)cc1)c1ccccc1 | 7.91 |
| CCCCCC/C=N/O | 11.6 |
| O=[N+]([O-])c1cccc(O)c1 | 8.31 |
| c1ccc(-c2nc3ccccc3[nH]2)cc1 | 11.9 |
| N#CCCNC(CC(N)=O)C(=O)O (stereo not drawn) | 6.46 |
| O=C(O)c1cccc(I)c1 | 3.83 |
| Nc1ccc(O)cc1[O-] | 11.3 |
| O=S(=O)([O-])c1cc(O)cc2cn[nH]c12 | 9.65 |
| C(COCCc1nnn[nH]1)OCCc1nnn[n-]1 | 5.37 |
| COP(=O)(O)NS(=O)(=O)c1ccccc1 | 1.05 |

| Compound | pKa |
| --- | --- |
| Cc1nnc(C)n1O | 6.5 |
| Fc1ccc(NC(=S)c2cccc(Br)c2)cc1 | 10.3 |
| Cc1ccccc1[N+](C)(C)O | 4.78 |
| CCc1cc(Cl)c(OC)c(C(=O)NC[C@H]2CCC[NH+]2CC)c1O | 6.91 |
| Cc1ccc(S(N)(=O)=O)cc1 | 9.89 |
| O=[Se](O)c1ccc(-c2ccccc2)cc1 | 4.53 |
| O=C(O)/C(I)=C\c1ccccc1 | 2.24 |
| CC1(C)N=C(C(=O)CC(=O)C(F)(F)F)C(C)(C)N1O | 4.66 |
| COc1ccccc1-c1nnn[nH]1 | 4.8 |
| CN(C)C(=O)CC(=O)c1ccncc1 | 7.75 |
| CCCOc1ccc(O)cc1 | 10.2 |
| CC(=O)OCC(=N/O)/C(C)=N/O | 9.7 |
| O=c1cc(-c2ccccc2O)oc2ccccc12 | 8.85 |
| O=C(O)C1CC1(Cl)Cl (stereo not drawn) | 3.51 |
| CNCC(N)=O | 8.35 |
| CCC(Oc1ccccc1C)C(=O)O (stereo not drawn) | 3.43 |
| COc1ccccc1/C=C\C(=O)O | 4.27 |
| NC(=O)N/N=C/c1ncnc2nc[nH]c12 | 9.1 |
| Cc1c(I)cccc1C(=O)O | 3.26 |
| CCCCO | 15.6 |
| Oc1cc(Br)cc(Br)c1 | 8.01 |
| Oc1cccc2c1CCC2 | 10.2 |
| CC(C)(/C=C/C(=O)[O-])c1cc(Br)ccc1O | 10 |
| O=C(O)CC[C@H]1CC[C@H](O)CC1 | 4.86 |
| CC(N)C(N)=O (stereo not drawn) | 8.02 |
| COc1ccc(-c2nc3ncncc3[nH]2)c(OC)c1 | 9.92 |

| Compound | pKa |
| --- | --- |
| CC(=O)c1ccc(Br)cc1 | 18 |
| COC(=O)C1=C(C(=O)OC)CC=C1 | 5 |
| C[NH+]1CSC[C@H]1C(=O)O | 1.51 |
| O=c1cccc(O)cc1 | 5.64 |
| CC[Si](C)(C)CCCC(=O)O | 5.02 |
| CCC1(CC)C(=O)NC(=O)N(C(=O)c2ccccc2OC)C1=O | 6.54 |
| O=C(O)C#CSc1ccccc1 | 2.11 |
| O=C(O)c1cccc(O)c1 | 4.07 |
| C/C(=N\O)NO | 10.8 |
| Oc1cncc2cccnc12 | 8.33 |
| Nc1ccc(S(=O)(=O)Nc2ccc(C(=O)O)cc2)cc1 | 4.02 |
| Cc1cc(O)n(C2CC[NH+](C)CC2)n1 | 6.63 |
| Cc1ccc(SC2CC(=O)N2)cc1 (stereo not drawn) | 13.4 |
| CCC(C(C)=O)C(C)=O | 11.3 |
| CC(C)(S)C(C(=O)O)n1cc[nH+]c1Cc1ccccc1 (stereo not drawn) | 1.8 |
| COC(=O)CC(=N/O)/C(C)=N/O | 9.77 |
| [NH3+]CCCCCCNC(=S)S | 2.95 |
| O=C(Cc1cccnc1)c1ccccc1 | 13.7 |
| Cc1cc(O)ccc1[N+](C)(C)C | 8.34 |
| O=C1NC(=O)C2(CCOc3ccc(F)cc32)N1 (stereo not drawn) | 8.3 |
| Cc1cc(O)nn1-c1ccccc1 | 12.1 |
| Nc1ccccc1O | 9.71 |
| Cc1ccc(S(=O)O)cc1 | 1.82 |
| CC(=O)C(C)C(C)(C)C(=O)O (stereo not drawn) | 5.79 |
| Cc1c(Cn2cc[nH+]c2)n(C)c2ccc(C(=O)O)cc12 | 4.08 |
| O=C1O[C@@H]([C@@H](O)CO)C([O-])=C1O | 11.3 |

same assay, conditions: basic group

| Compound | pKa |
| --- | --- |
| CNCCCc1ccccc1 | 10.6 |
| COc1cccc(C(=O)CCN2CCOCC2)c1 | 7.1 |
| Cc1ccccc1C(=NCCCC[NH+](C)C)c1ccccc1C | 5.18 |
| CC(C)C(N)C(=O)O (stereo not drawn) | 9.58 |
| C[C@@H](CN)c1ccccc1 | 9.94 |
| CNCCN | 10.4 |
| CS(=O)Cc1ccccn1 (stereo not drawn) | 3.1 |
| O=[N+]([O-])c1ccc2[nH]cnc2c1 | 3.77 |
| c1ccc(CSc2nc(SCc3ccccc3)c(-c3ccccc3)[nH]2)cc1 | 2.7 |
| CCNc1nnc(-c2ccccc2)s1 | 3 |
| CN1CCC(NN)CC1 | 8.85 |
| CN(C)c1nc2c(s1)CCCC2 | 6.16 |
| Nc1nc(N)nc([S-])n1 | 7.8 |
| Nc1ccc2cc3c(ccc4ccccc43)nc2c1 | 7.42 |
| N=C(N)Nc1nccc(-c2csc(N)n2)n1 | 9.2 |
| Cc1cnc2c([S-])ncnc2n1 | 7.02 |
| CNc1nccn2cc(-c3ccc(S(C)=O)cc3OC)nc12 (stereo not drawn) | 5.36 |
| Cc1cc(N)cc[n+]1[O-] | 4.1 |
| CC(C)(C)c1ccc(N)cc1 | 4.95 |
| COc1cc2c(cc1OC)NCC2 | 7.3 |
| Cn1ccc2ccc3cccnc3c21 | 4.36 |
| CC(C)N(CC1CO1)CC1CO1 (stereo not drawn) | 7.07 |
| N#CC(C#N)=NNc1cccc(Cl)c1Cl | -0.71 |
| C=Cc1c(C)c2cc3[nH+]c(c(CC(=O)OC)c4[nH]c(cc5nc(cc1[nH]2)C(C)=C5CC)c(C)c4C(=O)NCC)[C@@H](CCC(=O)OC)[C@@H]3C | 0 |
| Nc1ncc(S(=O)(=O)c2ccccc2)s1 | 1.79 |

| Compound | pKa |
| --- | --- |
| Nc1cc[nH]n1 | 4.11 |
| CCOC(=O)c1cnc2cc([N+](=O)[O-])ccc2c1[O-] | 9.32 |
| C=C(C)C(=O)OCCNC(C)C | 9.13 |
| CN1C[C@@H](C(=O)[O-])C=C2c3cccc4[nH]cc(c34)C[C@@H]21 | 7.85 |
| c1ccc2c3c([nH]c2c1)CNCC3 | 8.4 |
| c1c[nH]c(Cc2ncc[nH]2)n1 | 7.27 |
| O=[N+]([O-])c1ccc2cn[nH]c2c1 | 0.66 |
| N[C@H]1CC(=O)N(CCCC[C@H]([NH3+])C(=O)[O-])C1=O | 6 |
| CCCNCc1ccccc1 | 9.62 |
| Nc1nncc2ccccc12 | 6.6 |
| Cc1cc([O-])ncn1 | 9 |
| Cc1nc(-c2ccccc2SCc2ccccc2)[nH]c1C | 7 |
| N[C@@H]1CCC[C@@H]1O | 9.7 |
| C1CCCNCCCCCCNCC1 | 9.6 |
| CCN(CC)CCCNC(=O)/C=N/[O-] | 10.3 |
| N=C(Nc1ccccc1)Nc1nc(N)nc(N)n1 | 8.2 |
| Nc1cc2ccccc2nn1 | 3.66 |
| Cc1n[nH]c(C)c1C | 4.82 |
| Cc1ccc([N+](=O)[O-])cc1/C(=N/CCC[NH+](C)C)c1ccccc1 | 3.14 |
| C[NH+](C)c1ccc(N)cc1 | 3.73 |
| CCNC[Si](C)(C)C | 11.1 |
| COC(=O)C1CCCN(C)C1 (stereo not drawn) | 8.45 |
| Nc1c([N+](=O)[O-])ccc2ccccc12 | -1.6 |
| CCCCCSC(=N)c1ccccc1 | 8.5 |
| Nc1cccc2cnccc12 | 5.59 |

| Compound | pKa |
| --- | --- |
| Cc1nc2cc([N+](=O)[O-])ccc2[nH]1 | 5.16 |
| Nc1ccc(Cc2ccc(N)cc2)cc1 | 5.1 |
| COCCNc1cccc(C)c1 | 4.29 |
| CCCCNc1nnc(-c2ccccc2)cc1C | 6.1 |
| CC(C)CN(C)C | 9.91 |
| CCCCCCCCCCCCCCN(CC(C)O)CC(O)CC (stereo not drawn) | 6.1 |
| Nc1ncnc([O-])c1N | 9.86 |
| Nc1cccc2[nH]ncc12 | 3.29 |
| CC(C=C(c1cccs1)c1cccs1)N1CCCCC1C (stereo not drawn) | 7.46 |
| Nc1cccc2cccc([N+](=O)[O-])c12 | 2.79 |
| CN(C)CCC/N=C(\c1ccccc1)c1ccccc1O | 9.3 |
| Cc1cc2ncn([C@H]3O[C@@H](CO)[C@H](O)[C@@H](O)[C@@H]3O)c2cc1C | 4.63 |
| NC(=O)N/N=C/c1ncnc2nc[nH]c12 | 2.1 |
| N=C(c1ccccc1)c1ccccc1Cl | 5.59 |
| O=C([O-])C1CCNC1 (stereo not drawn) | 10.7 |
| COc1ccc(CC(C)N)cc1 (stereo not drawn) | 9.53 |
| Nc1ccc2cccc([N+](=O)[O-])c2c1 | 2.86 |
| COc1ccc(-c2nc3ncncc3[nH]2)c(OC)c1 | 3.09 |
| Brc1cnc2ccccc2c1 | -0.44 |
| O=[N+]([O-])c1ccc2[nH]c(-c3ccccc3)nc2c1 | 2.95 |
| CCc1ccc(C)nn1 | 4.17 |
| C1CNCCNCCN1 | 10.6 |
| Nc1nccc([O-])n1 | 9.42 |
| c1c[nH]c(Cc2nc(Cc3c[nH]cn3)c[nH]2)n1 | 7.26 |
| CCCCNCC(=O)c1ccc(O)cc1 | 8.55 |

| Compound | pKa |
| --- | --- |
| O=C(O)c1cccc(O)c1 | -1.01 |
| O=Cc1ccncc1 | 4.63 |
| C/C(=N\O)NO | 4.95 |
| NCC(=O)Nc1ccccc1 | 8.12 |
| C1CCC(C2=NCCC2)CC1 | 6.05 |
| CC(C)(C)c1cc(O)[nH]n1 | 2.9 |
| CCCCNc1ncnc2c1cnn2C | 4.22 |
| c1cnc2c(c1)CCCC2 | 6.6 |
| Cc1cnc2c(cc(C)c3cccnc32)c1C | 5.93 |
| C[Si](C)(C)CNc1ccccc1 | 5.3 |
| CCCn1ccnc1C | 8.2 |
| COc1ccc2nc3c(c(N4CCOCC4)c2c1)CCC3 | 7.14 |
| c1ccc(-c2ncc[nH]2)nc1 | 5.46 |
| CNCC(=O)[O-] | 10.1 |
| CCOCCn1c(CN2CC[NH+](CCCCn3cccn3)CC2)nc2ccccc21 | 4.8 |
| Nc1ccc2c(c1)-c1ccccc1C2 | 4.68 |
| O=C(Cc1cccnc1)c1ccccc1 | 4.87 |
| C=C[C@]1(O)C[NH+]2CC[C@H]1C[C@@H]2[C@@H](O)c1ccnc2ccc(OC)cc12 | 4.12 |
| CNC(=N)N(C)C | 13.6 |
| Nc1ccccc1O | 4.55 |
| O=C([O-])[C@@H](O)Cc1c[nH]cn1 | 7.32 |
| Nc1ccc([N+](=O)[O-])c(F)c1 | -0.3 |
| CCN(CC)S(=O)(=O)c1ccc(N)cc1 | 1.75 |
| CC1=Nc2ccc([N+](=O)[O-])cc2[NH+]=C(C)C1 | 2.2 |
| O=C([O-])CCCc1c[nH]cn1 | 7.62 |
